{"source": "patent US20140364449A1", "about": "(priority 2012, published 2014)", "key": {"mu-opioid receptor [1]": {"target": "T1, mu-opioid receptor (Rattus norvegicus, UniProt P33535)", "T1 construct": "expressed in transfected cells; host or cells: HEK293 cells, transient transfection", "T1 sequence (P33535 whole entry)": "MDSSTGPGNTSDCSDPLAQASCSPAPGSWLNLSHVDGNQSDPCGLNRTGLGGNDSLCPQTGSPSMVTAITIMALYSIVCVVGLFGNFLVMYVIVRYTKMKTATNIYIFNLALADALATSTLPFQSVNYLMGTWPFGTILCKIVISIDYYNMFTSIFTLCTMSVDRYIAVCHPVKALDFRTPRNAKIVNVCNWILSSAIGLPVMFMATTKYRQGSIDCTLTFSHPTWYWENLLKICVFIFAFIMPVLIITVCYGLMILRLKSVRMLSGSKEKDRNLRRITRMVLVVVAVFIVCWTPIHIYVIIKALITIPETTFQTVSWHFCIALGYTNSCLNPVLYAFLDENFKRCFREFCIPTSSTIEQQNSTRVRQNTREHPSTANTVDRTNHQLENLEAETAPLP", "format": "binding"}, "mu-opioid receptor [2]": {"target": "T1, mu-opioid receptor", "format": "cell-based"}}, "note": "Like-named read-outs stand apart in the source and are kept apart here."}
{"smiles": "C[C@@H](NC(=O)[C@@H](N)Cc1ccc(O)cc1)C(=O)NCC(=O)N(C)[C@@H](Cc1ccccc1)C(=O)NCCO", "note": "[DAMGO, (D-Ala^2, N-MePhe^4, Gly^5-ol)-enkephalin]", "values": [{"measurement": "Affinity and number of binding sites, pH dependence", "setting": "mu-opioid receptor [1]", "value": "slightly (nonsignificantly) lower at pH 5.5 compared to pH 7.5"}, {"measurement": "^3H-DAMGO Bmax", "setting": "mu-opioid receptor [1]; pH 5.5", "value": 14.04, "unit": "fmol/mg"}, {"measurement": "^3H-DAMGO Bmax", "setting": "mu-opioid receptor [1]; pH 6.5", "value": 15.50, "unit": "fmol/mg"}, {"measurement": "^3H-DAMGO Bmax", "setting": "mu-opioid receptor [1]; pH 7.5", "value": 23.95, "unit": "fmol/mg"}, {"measurement": "cAMP (% baseline)", "setting": "mu-opioid receptor [2]; pH 5", "value": "43 ± 6", "unit": "% baseline"}, {"measurement": "cAMP (% baseline)", "setting": "mu-opioid receptor [2]; pH 6.5", "value": "68 ± 9", "unit": "% baseline"}, {"measurement": "Suppression of FSK/IBMX-stimulated cAMP, pH dependence", "setting": "mu-opioid receptor [2]; pH 7.5", "value": "markedly stronger at pH 5.0 than at pH 7.5"}, {"measurement": "cAMP (% baseline)", "setting": "mu-opioid receptor [2]; pH 7.5", "value": "82 ± 7", "unit": "% baseline"}]}
